Source: publication PMC8811472, “Systematic In Vitro Evaluation of a Library of Approved and Pharmacologically Active Compounds for the Identification of Novel Candidate Drugs for KMT2A-Rearranged Leukemia” (Frontiers in Oncology, 2022)

Key:
[1] = tested on: THP-1 and REH versus 2-Cl-ATP-sensitive KMT2A-r cells; assay: Resazurin-based viability assays of nucleoside analogs in leukemia cell line panel; parameters: species or system human
Experimental: (§1) The cytotoxicity of drugs was assessed through resazurin-based assays and the inhibitory concentration resulting in 50% reduction of cell survival relative to control (IC50) was calculated as previously described ([7]). In synergy studies, cells were exposed to a dilution series of compounds, as single agents or in combination, in resazurin-based assays (72 hours) as described ([8]–[10]). The occurrence of synergy was determined with the Bliss Independence model as previously described ([8]–[10]). Bliss Prediction curves indicated the predicted percentage viability of the cells when exposed to the combination of compounds if both compounds work additively together. Synergy was visualised as the presence of a lower cell viability upon combination of two compounds compared to the viability predicted based on the presence of an additive effect of the compounds (i.e., the viability curve of the combination runs below the Bliss Prediction curve). The percentage of apoptotic cells was assessed by annexin V and 7-Aminoactinomycin D (7-AAD) (BD Biosciences, Australia) flow cytometry as previously described ([7]).

PER-485 cells = assay: 72-hour resazurin-based cytotoxicity assay, PER-485; assay type: cell-based, human; conditions: PER-485, KMT2A-r t(4;11), infant ALL derived
Experimental: All cell lines used in this study were mycoplasma-free and have been authenticated using STR profiling. Cells were cultured as previously described ([7], [8]). Characteristics of the leukemia cell lines used in this study are described in Supplementary Table 1 . Peripheral blood mononuclear cells from healthy donors were purchased from Australian Red Cross.
as §1

| Compound | response of 2-Cl-ATP-resistant cell lines THP-1 and REH compared with 2-Cl-ATP-sensitive KMT2A-r cells [1] | IC50 (PER-485 cells) |
| --- | --- | --- |
| Nc1nc(Cl)nc2c1ncn2[C@@H]1O[C@H](CO)[C@@H](O)[C@H]1O [2-CADO, 2-chloroadenosine] | less responsive | – |
| Nc1nc(Cl)nc2c1ncn2[C@H]1C[C@H](O)[C@@H](CO)O1 [cladribine] | less responsive | – |
| O=C(O)c1cc2c(cn1)[nH]c1ccccc12 [β-CCB, β-carboline-3-carboxylate] | – | 2.6 µM |
